From the supplement of paper PMC10307832

How the values were obtained:
Test in all cases: relative viability (nuclei count vs DMSO), 5 days (fraction); higher = more cells survive
Fedratinib + Palbociclib = compound: Cc1cnc(Nc2ccc(OCCN3CCCC3)cc2)nc1Nc1cccc(S(=O)(=O)NC(C)(C)C)c1 [Fedratinib] + CC(=O)c1c(C)c2cnc(Nc3ccc(N4CCNCC4)cn3)nc2n(C2CCCC2)c1=O [Palbociclib] (partner 0.5 µM)
Outline: (§1)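 Lung cancer cell lines were pin-tool dosed in 1536-well plates on the day after seeding, with either a lone drug or a fixed anchor-drug dose plus five library-drug doses (not always all listed) in √10 steps. Nuclei were counted on 4× images after 5 days. Relative viability is the ratio of treated-well to vehicle-well nuclei counts, with each value a median of duplicate plates.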

GW-2580 + Palbociclib = compound: COC1=CC=C(C=C1)COC2=C(C=C(C=C2)CC3=CN=C(N=C3N)N)OC [GW-2580] + CC(=O)c1c(C)c2cnc(Nc3ccc(N4CCNCC4)cn3)nc2n(C2CCCC2)c1=O [Palbociclib] (partner 0.5 µM)
Outline: as §1

GW-2580 + Linsitinib = compound: COC1=CC=C(C=C1)COC2=C(C=C(C=C2)CC3=CN=C(N=C3N)N)OC [GW-2580] + C[C@]1(O)C[C@@H](c2nc(-c3ccc4ccc(-c5ccccc5)nc4c3)c3c(N)nccn32)C1 [Linsitinib] (partner 1 µM)
Outline: as §1

Fedratinib + Dasatinib = compound: Cc1cnc(Nc2ccc(OCCN3CCCC3)cc2)nc1Nc1cccc(S(=O)(=O)NC(C)(C)C)c1 [Fedratinib] + Cc1nc(Nc2ncc(C(=O)Nc3c(C)cccc3Cl)s2)cc(N2CCN(CCO)CC2)n1 [Dasatinib] (partner 0.075 µM)
Outline: as §1

GW-2580 + Bortezomib = compound: COC1=CC=C(C=C1)COC2=C(C=C(C=C2)CC3=CN=C(N=C3N)N)OC [GW-2580] + CC(C)C[C@H](NC(=O)[C@H](Cc1ccccc1)NC(=O)c1cnccn1)B(O)O [Bortezomib] (partner 0.002 µM)
Outline: as §1

| Cell Line | relative viability (Fedratinib + Palbociclib; first compound 0.1 µM) | relative viability (Fedratinib + Palbociclib; first compound 0.3162 µM) | relative viability (Fedratinib + Palbociclib; first compound 1 µM) | relative viability (GW-2580 + Palbociclib; first compound 0.08 µM) | relative viability (GW-2580 + Palbociclib; first compound 0.8 µM) | relative viability (GW-2580 + Palbociclib; first compound 2.53 µM) | relative viability (GW-2580 + Palbociclib; first compound 8 µM) | relative viability (GW-2580 + Linsitinib; first compound 0.08 µM) | relative viability (GW-2580 + Linsitinib; first compound 0.8 µM) | relative viability (GW-2580 + Linsitinib; first compound 2.53 µM) | relative viability (GW-2580 + Linsitinib; first compound 8 µM) | relative viability (Fedratinib + Dasatinib; first compound 0.1 µM) | relative viability (Fedratinib + Dasatinib; first compound 0.3162 µM) | relative viability (Fedratinib + Dasatinib; first compound 1 µM) | relative viability (GW-2580 + Bortezomib; first compound 0.08 µM) | relative viability (GW-2580 + Bortezomib; first compound 0.8 µM) | relative viability (GW-2580 + Bortezomib; first compound 2.53 µM) | relative viability (GW-2580 + Bortezomib; first compound 8 µM) |
| --- | --- | --- | --- | --- | --- | --- | --- | --- | --- | --- | --- | --- | --- | --- | --- | --- | --- | --- |
| SK-LU-1 | 0.393 | 0.317 | 0.34 | 0.414 | 0.459 | 0.29 | 0.373 | 1.39 | 1.23 | 1.04 | 1.16 | 0.143 | 0.169 | 0.165 | 0.902 | 1.42 | 0.73 | 1.54 |
| SW 1573 | 0.41 | 0.373 | 0.302 | 0.439 | 0.38 | 0.397 | 0.408 | 0.744 | 0.806 | 0.713 | 0.66 | 0.612 | 0.614 | 0.305 | 0.903 | 0.932 | 0.987 | 0.798 |
